Experimental data as given in patent publication US20250179047A1, “5-[7-(3,4-DIHYDRO-1H-ISOQUINOLINE-2-CARBONYL)-1,2,3,4 TETRAHYDROISOQUINOLIN-6-YL]-1H-PYRROLE-3-CARBOXAMIDE DERIVATIVES, PHARMACEUTICAL COMPOSITIONS CONTAINING THEM AND THEIR USES AS PRO-APOPTOTIC AGENTS” (LES LABORATOIRES SERVIER, priority 2022, published 2025).

What was measured:
BCL2 WT = BCL2 WT (Homo sapiens (Human), UniProt P10415); experiment: TR-FRET competitive binding assay, BCL2 WT; conditions: Ki determined from IC50, read-out: TR_FRET EKI_Bcl2 WT
Outline: (§1)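 Ki derived from IC50 (11-point dilution, 520/495 nm emission ratio) for displacing a fluorescein-labelled PUMA peptide (2 or 20 nM). Target was 0.5 nM E. coli-expressed Halo-tagged BCL2 (1-207) or BCLXL (2-196), terbium-labelled on Halo. Incubation 2 h at 23°C in pH 7.5 Hepes with 150 mM NaCl and 5% DMSO.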

BCL2 G101V [1] = target: BCL2 G101V (Homo sapiens, UniProt P10415, G101V); experiment: TR-FRET competitive binding assay, BCL2 G101V; conditions: BCL2 G101V; Ki determined from IC50; read-out: TR_FRET EKI_Bcl2 G101V
Outline: as §1

BCL2 G101V [2] = experiment: TR-FRET competitive binding assay, BCL2 G101V; parameters: species or system human; conditions: ratio Ki BCL2 G101V / Ki BCL2 WT
Outline: as §1

BCL2 D103Y = BCL2 D103Y (Homo sapiens, UniProt P10415, D103Y); experiment: TR-FRET competitive binding assay, BCL2 D103Y; conditions: Ki determined from IC50, read-out: TR_FRET EKI_Bcl2 D103Y
Outline: as §1

BCL2 F104I = BCL2 F104I (Homo sapiens, UniProt P10415, F104I); experiment: TR-FRET competitive binding assay, BCL2 F104I; conditions: Ki determined from IC50, read-out: TR_FRET EKI_Bcl2 F104I
Outline: as §1

BCL2 D111A = BCL2 D111A (Homo sapiens, UniProt P10415, D111A); experiment: TR-FRET competitive binding assay, BCL2 D111A; conditions: Ki determined from IC50, read-out: TR_FRET EKI_Bcl2 D111A
Outline: as §1

BCLXL WT = BCLXL WT (Homo sapiens (Human), UniProt Q07817); experiment: TR-FRET competitive binding assay, BCLXL WT; conditions: for Ki: BCLXL WT, Ki determined from IC50, read-out: TR_FRET EKI BclxL; for TR_FRET EKI BCLxL/WT selectivty ratio: ratio Ki BCLxL / Ki BCL2 WT
Sequence of BCLXL WT (Q07817 other isoform, or with tags, fused parts or gaps): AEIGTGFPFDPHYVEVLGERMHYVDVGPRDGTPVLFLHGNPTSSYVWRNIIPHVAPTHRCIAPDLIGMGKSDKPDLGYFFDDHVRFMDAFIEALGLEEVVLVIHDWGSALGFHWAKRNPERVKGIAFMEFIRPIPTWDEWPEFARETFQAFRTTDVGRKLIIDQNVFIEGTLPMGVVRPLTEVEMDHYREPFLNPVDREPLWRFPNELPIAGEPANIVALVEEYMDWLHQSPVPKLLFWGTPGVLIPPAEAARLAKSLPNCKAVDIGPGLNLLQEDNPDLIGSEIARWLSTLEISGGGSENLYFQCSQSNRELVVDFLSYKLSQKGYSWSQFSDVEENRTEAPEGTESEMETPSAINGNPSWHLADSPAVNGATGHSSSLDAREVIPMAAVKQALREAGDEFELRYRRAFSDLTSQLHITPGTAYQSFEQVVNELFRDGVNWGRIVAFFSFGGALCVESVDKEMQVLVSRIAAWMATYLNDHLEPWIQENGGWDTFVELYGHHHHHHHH
Outline: as §1

KMS-12-PE Bcl-2 WT = experiment: In vitro cytotoxicity CellTiter-Glo 48 h, KMS-12-PE Bcl-2 WT; type: cell-based; conditions: C50 = concentration needed to reach 50% of the cellular viability
Outline: (§2)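 Transduce KMS-12-PE with Bcl-2 WT or G101V lentivirus, then FACS-sort RFP-positive cells. Add compounds in an 11-point dilution series and incubate 48 h at 37 °C. Measure ATP-based luminescence with CellTiter-Glo and derive C50 (50% viability).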

KMS-12-PE Bcl-2 G101V = experiment: In vitro cytotoxicity CellTiter-Glo 48 h, KMS-12-PE Bcl-2 G101V; type: cell-based; conditions: for Ratio (G101V/WT): C50 KMS-12-PE Bcl-2 G101V over C50 KMS-12-PE Bcl-2 WT; for IC50: Homo sapiens, KMS-12-PE, 48 h, CellTiter-Glo, C50 = concentration needed to reach 50% of the cellular viability
Outline: as §2

| Structure (SMILES) | Ki (BCL2 WT) | Ki (BCL2 G101V [1]) | TR_FRET EKI G101V/WT selectivty ratio (BCL2 G101V [2]) | Ki (BCL2 D103Y) | Ki (BCL2 F104I) | Ki (BCL2 D111A) | Ki (BCLXL WT) | TR_FRET EKI BCLxL/WT selectivty ratio (BCLXL WT) | IC50 (KMS-12-PE Bcl-2 WT; Homo sapiens, KMS-12-PE) | Ratio (G101V/WT) (KMS-12-PE Bcl-2 G101V) | IC50 (KMS-12-PE Bcl-2 G101V) | IC50 (KMS-12-PE Bcl-2 WT) |
| --- | --- | --- | --- | --- | --- | --- | --- | --- | --- | --- | --- | --- |
| Cc1c(N(C(=O)c2cc(-c3cc4c(cc3C(=O)N3Cc5ccccc5C[C@H]3C)CN(C(=O)Cc3ccc(OCCN(C)C5COC5)cc3)CC4)n(C)c2C)c2ccc(O)cc2)cc(C#N)n1C [Example 60, N-(5-cyano-1,2-dimethyl-1H-pyrrol-3-yl)-N-(4-hydroxyphenyl)-1,2-dimethyl-5-{2-[2-(4-{2-[methyl(oxetan-3-yl)amino]ethoxy}phenyl)acetyl]-7-[(3R)-3-methyl-1,2,3,4-tetrahydroisoquinoline-2-carbonyl]-1,2,3,4-tetrahydroisoquinolin-6-yl}-1H-pyrrole-3-carboxamide] | 50 pM | 200 pM | 3.5 | 140 pM | 210 pM | 90 pM | 1000 pM | 19.2 | 0.0075 µM | 4.91 | 0.0367 µM | – |
| Cc1c(N(C(=O)c2cc(-c3cc4c(cc3C(=O)N3Cc5ccccc5C[C@H]3C)CN(C(=O)Cc3ccc(OCCN(C)C5CC5)nc3)CC4)n(C)c2C)c2ccc(O)cc2)cc(C#N)n1C [Example 61, N-(5-cyano-1,2-dimethyl-1H-pyrrol-3-yl)-5-{2-[2-(6-{2-[cyclopropyl(methyl)amino]ethoxy}pyridin-3-yl)acetyl]-7-[(3R)-3-methyl-1,2,3,4-tetrahydroisoquinoline-2-carbonyl]-1,2,3,4-tetrahydroisoquinolin-6-yl}-N-(4-hydroxyphenyl)-1,2-dimethyl-1H-pyrrole-3-carboxamide] | 40 pM | 200 pM | 5.0 | 130 pM | 1020 pM | 180 pM | 1500 pM | 35.7 | 0.0143 µM | 5.76 | 0.0824 µM | – |
| Cc1c(C(=O)N(c2ccc(O)cc2)c2cnc3c(cnn3C)c2)cc(-c2cc3c(cc2C(=O)N2Cc4ccccc4C[C@H]2C)CN(C(=O)Cc2ccc(OCCN4CCOCC4)cc2)CC3)n1C [Example 62, N-(4-hydroxyphenyl)-1,2-dimethyl-5-(7-{[(3R)-3-methyl-3,4-dihydro-1H-isoquinolin-2-yl]carbonyl}-2-(2-{4-[2-(morpholin-4-yl)ethoxy]phenyl}acetyl)-3,4-dihydro-1H-isoquinolin-6-yl)-N-{1-methylpyrazolo[3,4-b]pyridin-5-yl}pyrrole-3-carboxamide] | 60 pM | 300 pM | 5.5 | 470 pM | 380 pM | 90 pM | 2400 pM | 38.7 | 0.0118 µM | 7.56 | 0.0892 µM | – |
| Cc1c(N(C(=O)c2cc(-c3cc4c(cc3C(=O)N3Cc5ccccc5C[C@H]3C)CN(C(=O)Cc3ccc(OCCN5CCOCC5)cc3)CC4)n(C)c2C)c2ccccc2)cc(C#N)n1C [Example 65, N-(5-cyano-1,2-dimethylpyrrol-3-yl)-1,2-dimethyl-5-(7-{[(3R)-3-methyl-3,4-dihydro-1H-isoquinolin-2-yl]carbonyl}-2-(2-{4-[2-(morpholin-4-yl)ethoxy]phenyl}acetyl)-3,4-dihydro-1H-isoquinolin-6-yl)-N-phenylpyrrole-3-carboxamide] | 80 pM | 700 pM | 9.4 | 800 pM | 1120 pM | 140 pM | 4100 pM | 52.6 | – | 15 | 0.0414 µM | 0.0028 µM |

Further lines, with some results ahead:

| Ki (BCL2 WT) | Ki (BCL2 G101V [1]) | TR_FRET EKI G101V/WT selectivty ratio (BCL2 G101V [2]) | Ki (BCL2 D103Y) | Ki (BCL2 F104I) | Ki (BCL2 D111A) | Ki (BCLXL WT) | TR_FRET EKI BCLxL/WT selectivty ratio (BCLXL WT) | Structure (SMILES) | IC50 (KMS-12-PE Bcl-2 WT; Homo sapiens, KMS-12-PE) | Ratio (G101V/WT) (KMS-12-PE Bcl-2 G101V) | IC50 (KMS-12-PE Bcl-2 G101V) | IC50 (KMS-12-PE Bcl-2 WT) |
| --- | --- | --- | --- | --- | --- | --- | --- | --- | --- | --- | --- | --- |
| 150 pM | 1200 pM | 8.0 | 680 pM | 1020 pM | 310 pM | 1600 pM | 10.7 | Cc1c(C(=O)N(c2ccc(O)cc2)c2cc(C#N)n(C3CC3)c2C)cc(-c2cc3c(cc2C(=O)N2Cc4ccccc4C[C@H]2C)CN(C(=O)Cc2ccc(OCCN4CCOCC4)cc2)CC3)n1C [Example 71, N-(5-cyano-1-cyclopropyl-2-methyl-pyrrol-3-yl)-N-(4-hydroxyphenyl)-1,2-dimethyl-5-[7-[(3R)-3-methyl-3,4-dihydro-1H-isoquinoline-2-carbonyl]-2-[2-[4-(2-morpholinoethoxy)phenyl]acetyl]-3,4-dihydro-1H-isoquinolin-6-yl]pyrrole-3-carboxamide] | 0.0092 µM | 3.88 | 0.0356 µM | – |
| 140 pM | 900 pM | 6.1 | 370 pM | 1170 pM | 210 pM | 3700 pM | 26.4 | COc1ncc(N(C(=O)c2cc(-c3cc4c(cc3C(=O)N3Cc5ccccc5C[C@H]3C)CN(C(=O)Cc3ccc(OCCN5CCOCC5)cc3)CC4)n(C)c2C)c2ccc(O)cc2)cc1F [Example 72, N-(5-fluoro-6-methoxypyridin-3-yl)-N-(4-hydroxyphenyl)-1,2-dimethyl-5-(7-{[(3R)-3-methyl-3,4-dihydro-1H-isoquinolin-2-yl]carbonyl}-2-(2-{4-[2-(morpholin-4-yl)ethoxy]phenyl}acetyl)-3,4-dihydro-1H-isoquinolin-6-yl)pyrrole-3-carboxamide] | 0.0066 µM | 6.42 | 0.0427 µM | – |
| 20 pM | 100 pM | 2.8 | 70 pM | 40 pM | 90 pM | 1100 pM | 52.4 | Cc1c(N(C(=O)c2cc(-c3cc4c(cc3C(=O)N3Cc5ccccc5C[C@H]3CCN3CCCCC3)CN(C(=O)Cc3ccc(OCCN5CCOCC5)cc3F)CC4)n(C)c2C)c2ccc(O)cc2)cc(C#N)n1C [Example 74, N-(5-cyano-1,2-dimethyl-1H-pyrrol-3-yl)-5-[2-(2-{2-fluoro-4-[2-(morpholin-4-yl)ethoxy]phenyl}acetyl)-7-[(3S)-3-[2-(piperidin-1-yl)ethyl]-1,2,3,4-tetrahydroisoquinoline-2-carbonyl]-1,2,3,4-tetrahydroisoquinolin-6-yl]-N-(4-hydroxyphenyl)-1,2-dimethyl-1H-pyrrole-3-carboxamide] | 0.0375 µM | 2.36 | 0.0885 µM | – |
| 190 pM | 600 pM | 2.9 | 460 pM | 520 pM | 400 pM | 5300 pM | 27.9 | COc1ccc(N(C(=O)c2cc(-c3cc4c(cc3C(=O)N3Cc5ccccc5C[C@H]3C)CN(C(=O)Cc3ccc(OCCN5CCOCC5)cc3)CC4)n(C)c2C)c2ccc(O)cc2)cc1C#N [Example 81, N-(3-cyano-4-methoxyphenyl)-N-(4-hydroxyphenyl)-1,2-dimethyl-5-(7-{[(3R)-3-methyl-3,4-dihydro-1H-isoquinolin-2-yl]carbonyl}-2-(2-{4-[2-(morpholin-4-yl)ethoxy]phenyl}acetyl)-3,4-dihydro-1H-isoquinolin-6-yl)pyrrole-3-carboxamide] | 0.007 µM | 5.6429 | 0.0395 µM | – |
